Publication PMC10951960, “CGP7930 - An allosteric modulator of GABABRs, GABAARs and inwardly-rectifying potassium channels” (Neuropharmacology, 2023)
Read-outs that look alike come from different tables or passages of the source.

What was measured:
[1] = target: T1, GABAB receptors (R1a and R2) (Mus musculus, UniProt Q80T41+Q9WV18); experiment: GABA-activated K+ currents in GIRK cells (HEK cells stably expressing Kir3.1/3.2, transfected with GABAB R1a and R2), whole-cell patch clamp; assay type: cell-based, murine
T1 construct: expressed in transfected cells; host or cells: HEK-293 cells stably expressing Kir3.1/3.2 (GIRK cells)
Method: (§1) CGP55845, and other drugs, were obtained from Merck (Sigma-Aldrich) unless otherwise stated.
(§2) All cell culture reagents were acquired from ThermoFisher unless otherwise stated. […] These cells are referred to as GIRK cells throughout the text and were transiently transfected with cDNAs for eGFP, GABAB R1a and R2 in a 1:1:5 ratio applied 1–2 h after cell plating.
Spontaneous inhibitory postsynaptic currents (sIPSCs) were recorded from cultured hippocampal neurons at 12–17 days in vitro (DIV). […] GABABR-activated K^+ currents in cultured neurons were recorded in the additional presence of 2 mM kynurenic acid and 20 μM picrotoxin.
(§3) Borosilicate glass electrodes (3–5 MΩ) were filled with a K^+-based internal solution for recording GIRK currents containing (mM): 120 KCl, 2 MgCl2, 11 EGTA, 30 KOH, 10 HEPES, 1 CaCl2, 1 GTP, 2 ATP, 14 creatine phosphate, pH 7.0. GABAAR currents and sIPSCs were recorded with a Cs-based internal solution containing (mM): 120 CsCl, 1 MgCl2, 11 EGTA, 30 KOH, 10 HEPES, 1 CaCl2, and 2 K2ATP; pH 7.2. […] Cells were held at −60 mV (sIPSCs) or −60/−70 mV (K^+ currents). Voltage clamp recordings were undertaken after optimising series resistance (Rs, <10 MΩ) and compensating for the whole-cell membrane capacitance. Membrane currents were filtered at 5 kHz (−3 dB, 6th pole Bessel, 36 dB/octave) and stored for analysis with Clampex 10.
(§4) Concentration-response curves were generated by measuring the current (I) for each ligand concentration and normalising to the maximal current response (Imax).
These cells were bathed in high external K^+ concentration Krebs to reverse the direction of net K^+ current flow.

α1β2γ2L GABAAR = target: T2, α1β2γ2L GABAAR (Mus musculus, UniProt P22723+P62812+P63137); experiment: whole-cell currents of recombinant GABAA receptors in HEK-293 cells (α1β2γ2L); assay type: cell-based, murine
T2 construct: expressed in transfected cells; host or cells: HEK-293T
Method: as §1, §2
(§5) Spontaneous inhibitory postsynaptic currents (sIPSCs) were recorded from cultured hippocampal neurons at 12–17 days in vitro (DIV). […] For recording K^+ currents in GIRK cells and neurons, the bath solution was switched to a high K^+ solution containing 25 mM KCl and reduced NaCl (120 mM), to shift the equilibrium potential for K^+ from approximately −90 to −47 mV, thus reversing the direction of K^+ current flux to net inward. GABABR-activated K^+ currents in cultured neurons were recorded in the additional presence of 2 mM kynurenic acid and 20 μM picrotoxin.
as §3, §4
We explored the ability of CGP7930 to modulate different recombinant GABAARs expressed in HEK-293 cells to avoid confounds arising from heterogeneous receptor subtypes in neurons.

[2] = test system: native GABAARs in hippocampal neurons; experiment: muscimol-activated and CGP7930-activated GABAAR currents in hippocampal neurons, Cs+-based internal solution; assay type: cell-based, rat
Method: Briefly, single cells derived from dissected hippocampi were seeded onto glass coverslips coated with poly-D-lysine in a plating medium containing minimum essential media with 5% v/v heat-inactivated FCS, 5% v/v heat-inactivated horse serum, penicillin-G/streptomycin (100 U/100 μg/ml), 2 mM L-glutamine, and 20 mM glucose. Two hr after plating the media was changed to a Neurobasal-A based maintenance media supplemented with 1% v/v B-27, penicillin-G/streptomycin (100 U/100 μg/ml), 0.5% v/v Glutamax and 35 mM glucose.
as §5, §3, §4

T1 sequence (Q9WV18 20-960): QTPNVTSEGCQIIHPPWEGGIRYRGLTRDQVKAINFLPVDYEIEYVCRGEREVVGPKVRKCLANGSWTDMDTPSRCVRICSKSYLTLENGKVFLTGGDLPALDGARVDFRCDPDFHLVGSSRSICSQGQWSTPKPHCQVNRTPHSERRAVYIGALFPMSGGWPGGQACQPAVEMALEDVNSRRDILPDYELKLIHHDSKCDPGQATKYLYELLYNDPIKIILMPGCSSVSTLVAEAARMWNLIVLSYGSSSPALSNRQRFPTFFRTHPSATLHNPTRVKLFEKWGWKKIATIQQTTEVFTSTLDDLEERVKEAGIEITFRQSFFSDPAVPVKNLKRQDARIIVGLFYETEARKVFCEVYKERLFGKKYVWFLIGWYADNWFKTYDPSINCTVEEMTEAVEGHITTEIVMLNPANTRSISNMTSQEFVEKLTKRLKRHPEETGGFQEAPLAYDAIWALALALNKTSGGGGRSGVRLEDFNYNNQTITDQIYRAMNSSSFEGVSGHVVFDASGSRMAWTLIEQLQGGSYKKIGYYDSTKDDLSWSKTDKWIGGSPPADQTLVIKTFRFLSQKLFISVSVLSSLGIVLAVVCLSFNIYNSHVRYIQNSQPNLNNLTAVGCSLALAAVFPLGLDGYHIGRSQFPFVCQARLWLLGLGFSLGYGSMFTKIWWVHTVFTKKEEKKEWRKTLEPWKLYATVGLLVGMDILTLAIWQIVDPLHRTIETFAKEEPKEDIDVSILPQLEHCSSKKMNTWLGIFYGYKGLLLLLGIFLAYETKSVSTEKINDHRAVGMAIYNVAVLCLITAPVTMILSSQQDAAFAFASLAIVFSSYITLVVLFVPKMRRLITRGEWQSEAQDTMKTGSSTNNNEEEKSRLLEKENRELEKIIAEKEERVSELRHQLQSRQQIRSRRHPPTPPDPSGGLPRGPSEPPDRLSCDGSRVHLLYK
T1 sequence (Q80T41 41-940): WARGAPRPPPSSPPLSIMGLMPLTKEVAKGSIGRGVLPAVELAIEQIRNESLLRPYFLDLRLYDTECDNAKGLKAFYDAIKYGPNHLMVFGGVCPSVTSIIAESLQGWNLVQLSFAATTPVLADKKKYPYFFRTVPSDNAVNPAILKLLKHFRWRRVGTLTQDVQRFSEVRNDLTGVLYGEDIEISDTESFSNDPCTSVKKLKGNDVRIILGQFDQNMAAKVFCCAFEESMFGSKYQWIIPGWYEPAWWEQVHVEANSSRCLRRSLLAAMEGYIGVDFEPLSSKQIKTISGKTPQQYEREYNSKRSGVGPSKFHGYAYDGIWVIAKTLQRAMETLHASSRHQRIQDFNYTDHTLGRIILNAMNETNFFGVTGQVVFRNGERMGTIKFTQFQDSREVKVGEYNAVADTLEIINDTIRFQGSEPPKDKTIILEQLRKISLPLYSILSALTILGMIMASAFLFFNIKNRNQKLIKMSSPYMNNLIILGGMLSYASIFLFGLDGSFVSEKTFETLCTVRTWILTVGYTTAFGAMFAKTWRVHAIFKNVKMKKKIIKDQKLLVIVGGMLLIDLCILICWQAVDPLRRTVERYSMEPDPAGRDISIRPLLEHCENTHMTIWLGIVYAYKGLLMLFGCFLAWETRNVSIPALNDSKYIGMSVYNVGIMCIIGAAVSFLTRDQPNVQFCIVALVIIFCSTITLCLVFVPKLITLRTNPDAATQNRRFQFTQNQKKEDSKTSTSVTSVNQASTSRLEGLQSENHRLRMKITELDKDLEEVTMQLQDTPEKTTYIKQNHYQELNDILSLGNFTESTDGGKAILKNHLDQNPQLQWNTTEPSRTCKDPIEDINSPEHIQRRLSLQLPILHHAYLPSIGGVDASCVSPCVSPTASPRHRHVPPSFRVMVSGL
T2 sequence (P62812 28-455): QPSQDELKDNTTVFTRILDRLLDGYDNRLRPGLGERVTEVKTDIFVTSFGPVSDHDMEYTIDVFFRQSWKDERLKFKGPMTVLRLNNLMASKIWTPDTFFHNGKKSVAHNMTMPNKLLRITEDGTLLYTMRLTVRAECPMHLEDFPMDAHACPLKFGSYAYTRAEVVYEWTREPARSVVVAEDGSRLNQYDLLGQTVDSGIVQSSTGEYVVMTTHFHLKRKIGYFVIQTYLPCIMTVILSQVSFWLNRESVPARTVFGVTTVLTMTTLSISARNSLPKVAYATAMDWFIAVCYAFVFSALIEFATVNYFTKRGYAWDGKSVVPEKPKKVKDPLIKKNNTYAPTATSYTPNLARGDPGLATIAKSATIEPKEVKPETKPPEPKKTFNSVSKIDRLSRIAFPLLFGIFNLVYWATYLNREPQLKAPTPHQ
T2 sequence (P63137 25-512 limits assumed): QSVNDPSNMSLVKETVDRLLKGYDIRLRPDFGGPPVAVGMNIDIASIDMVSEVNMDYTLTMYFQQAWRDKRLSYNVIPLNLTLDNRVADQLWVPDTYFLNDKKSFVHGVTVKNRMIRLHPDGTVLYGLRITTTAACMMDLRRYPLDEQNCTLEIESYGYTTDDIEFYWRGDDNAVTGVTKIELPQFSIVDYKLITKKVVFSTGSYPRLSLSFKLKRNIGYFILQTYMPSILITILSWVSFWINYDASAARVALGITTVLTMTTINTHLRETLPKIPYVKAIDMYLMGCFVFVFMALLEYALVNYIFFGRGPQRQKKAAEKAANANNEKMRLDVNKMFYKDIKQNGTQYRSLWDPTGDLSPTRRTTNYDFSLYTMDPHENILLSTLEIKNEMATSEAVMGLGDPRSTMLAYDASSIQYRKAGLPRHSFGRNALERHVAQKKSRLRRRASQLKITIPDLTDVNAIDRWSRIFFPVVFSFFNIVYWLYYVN
T2 sequence (P22723 39-474): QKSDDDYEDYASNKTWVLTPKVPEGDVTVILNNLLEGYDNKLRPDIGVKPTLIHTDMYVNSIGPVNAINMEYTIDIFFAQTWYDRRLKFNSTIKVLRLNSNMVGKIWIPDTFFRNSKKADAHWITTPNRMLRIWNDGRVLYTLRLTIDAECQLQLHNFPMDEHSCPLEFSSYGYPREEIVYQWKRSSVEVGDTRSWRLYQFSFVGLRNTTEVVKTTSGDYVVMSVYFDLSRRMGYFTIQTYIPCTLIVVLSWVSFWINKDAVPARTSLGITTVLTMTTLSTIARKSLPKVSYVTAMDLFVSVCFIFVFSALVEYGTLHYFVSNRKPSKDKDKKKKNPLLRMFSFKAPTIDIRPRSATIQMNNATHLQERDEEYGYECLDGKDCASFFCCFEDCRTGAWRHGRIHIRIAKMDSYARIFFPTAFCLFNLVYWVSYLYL

Structure (SMILES): CC(C)(CO)Cc1cc(C(C)(C)C)c(O)c(C(C)(C)C)c1 [CGP7930, 3-(3′,5′-Di-tert-butyl-4′-hydroxy) phenyl-2,2-dimethylpropanol]
- direct receptor activation of GABABRs ([1]; GIRK cells, CGP7930 pre-applied alone): no indication of direct receptor activation
- potentiation reached, of the maximum GABA current activation of GABABRs ([1]; GIRK cells, ∼EC20 GABA): ~30%
- concentration at which GABABR signalling is inhibited ([1]; highlights statement): > 3 µM
- EC50 ([1]; read-out: EC50 for CGP7930 modulating EC20 GABAB receptor activated currents): 11.1 ± 7 µM
- IC50 ([1]; read-out: IC50 for CGP7930 modulating EC20 GABAB receptor activated currents): 10.5 ± 2 µM
- IC50 (α1β2γ2L GABAAR): 6.6 ± 2.3 µM
- EC50 (α1β2γ2L GABAAR; EC50 of GABA EC20 modulation curve, α1β2γ2L, ∼EC20 GABA, direct effects subtracted, n = 5): 1.7 ± 1.3 µM
- EC50 (α1β2γ2L GABAAR; α1β2γ2L (αβγ), read-out: EC50 for direct activation by CGP7930 alone): 9.3 ± 0.7 µM
- threshold for direct activation (α1β2γ2L GABAAR; α1β2γ2L, CGP7930 alone): 1 to 3 µM
- concentration at which clear direct activation became evident (α1β2γ2L GABAAR; α1β2γ2L, pre-application): 3 to 10 µM
- threshold for potentiation of the GABA current (α1β2γ2L GABAAR; α1β2γ2L, pre-application): 1 µM
- maximal direct activation compared to maximal GABAAR activation by saturating muscimol ([2]; hippocampal neurons, n = 8): 42.1 ± 1.8%
- EC50 ([2]; hippocampal neurons, n = 8, read-out: EC50 for direct activation (CGP7930 alone)): 5.2 ± 0.1 µM
- EC50 ([2]; ∼EC10-15 muscimol (0.5 μM), direct effect subtracted, n = 10, read-out: EC50 for CGP7930 potentiation of muscimol response): 2 ± 1.1 µM
- IC50 ([2]; ∼EC10-15 muscimol (0.5 μM), direct effect subtracted, n = 10, read-out: IC50 of bell-shaped muscimol potentiation curve): 7.9 ± 1.8 µM
